These are literature values, as cited in patent US20260114445A1, “STABLE ANTIMICROBIAL FORMULATION CONCENTRATE” (Kimberly-Clark Worldwide, Inc., priority 2020, published 2026).

The conditions of the series: temperature not given.

In the case of `CCCCCCCC(=O)NO` [Caprylhydroxamic Acid], the water solubility result was “approximately 0.14%”.
